Experimental data from patent publication US20060069132A1, “Azolecarboxamide herbicides” (priority 2004, published 2006).

What was measured:
common ragweed = assay: Test C pre-/postemergence herbicide test; format: in vivo, Ambrosia elatior; parameters: key to Plant response rating, Ragweed: 0 = no effect, 100 = complete control; settings: for Ragweed plant response rating: 500 g ai/ha
Procedure, shortened: (§1)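 Pre- and postemergence application, solvent/surfactant formulation; post at 1- to 4-leaf stage (2–18 cm). Greenhouse 12–14 d. Visual rating vs controls, 0 = no effect, 100 = complete control.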

chickweed = assay: Test C postemergence herbicide test; format: in vivo, Stellaria media; settings: for Chickweed plant response rating: 500 g ai/ha
Procedure, shortened: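 Visual rating, 0 (no effect) to 100 (complete control), vs. controls at 12–14 d in greenhouse. Postemergence: 1–4-leaf plants, 2–18 cm. Paddy: flooded, barnyardgrass at 2-leaf stage.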

morningglory = assay: Test C pre-/postemergence herbicide test; format: in vivo, Ipomoea coccinea; parameters: key to Plant response rating, Morningglory: 0 = no effect, 100 = complete control; settings: for Morningglory plant response rating: 500 g ai/ha
Procedure, shortened: as §1

giant foxtail = assay: Test A pre-/postemergence herbicide test; format: in vivo, Setaria faberi
Procedure, shortened: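 Visual injury rating on a 0–100 scale (0 no effect, 100 complete control) versus untreated controls, about ten days after treatment in greenhouse. Pre: directed soil spray onto seeded sandy loam. Post: spray to runoff on plants 2–10 cm tall at one- to two-leaf stage.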

winter barley = assay: Test C postemergence herbicide test; format: in vivo, Hordeum vulgare
Protocol: At the same time, plants selected from these crop and weed species and also winter barley (Hordeum vulgare L.), blackgrass (Alopecurus myosuroides Huds.), canarygrass (Phalaris minor Retz.), chickweed (Stellaria media (L.) Vill.), downy bromegrass (Bromus tectorum L.), green foxtail (Setaria viridis (L.) Beauv.), Italian ryegrass (Lolium multiflorum Lam.), wheat (Triticum aestivum L.), wild oat (Avenafatua L.) and windgrass (Apera spica-venti (L.) Beauv.) were treated with postemergence applications of some of the test chemicals formulated in the same manner. Plants ranged in height from 2 to 18 cm (1- to 4-leaf stage) for postemergence treatments. Plant species in the flooded paddy test consisted of rice (Oryza sativa), smallflower umbrella sedge (Cyperus difformis L.), ducksalad (Heteranthera limosa (Sw.) Willd.) and barnyardgrass (Echinochloa crus-galli (L.) Beauv.) grown to the 2-leaf stage for testing. Treated plants and controls were maintained in a greenhouse for 12 to 14 days, after which time all species were compared to controls and visually evaluated. Plant response ratings, summarized in Table C, are based on a scale of 0 to 100 where 0 is no effect and 100 is complete control. A dash (-) response means no test result.

[1] = 125 g ai/ha, scale 0 (no effect) to 100 (complete control), visual, 12 to 14 days, preemergence
[2] = 250 g ai/ha, scale 0 to 100 (0 no effect, 100 complete control), visual, 12 to 14 days, preemergence
[3] = Postemergence, 250 g ai/ha, scale 0 to 100, 0 no effect, 100 complete control
[4] = Preemergence, scale 0 to 100, 0 no effect, 100 complete control
[5] = postemergence, 62 g ai/ha, scale 0 to 100
[6] = Postemergence, 125 g ai/ha, scale 0 to 100, 0 no effect, 100 complete control
[7] = Postemergence, 500 g ai/ha, 0 to 100 scale, 0 no effect, 100 complete control
[8] = Postemergence, 2000 g ai/ha, 0 to 100 scale, 0 no effect, 100 complete control
[9] = Preemergence, 500 g ai/ha, visual rating, 0 to 100 scale (0 no effect, 100 complete control)
[10] = Preemergence, 2000 g ai/ha, 0 to 100 scale, 0 no effect, 100 complete control
[11] = postemergence, 125 g ai/ha, scale 0 to 100
[12] = 31 g ai/ha, preemergence, scale 0 to 100
[13] = Preemergence, 2000 g ai/ha, visual rating, 0 to 100 scale (0 no effect, 100 complete control)

Row | SMILES | Plant response rating (0 = no effect, 100 = complete control), Ragweed (common ragweed; 62 g ai/ha, preemergence) | Plant response rating, Ragweed (common ragweed; [1]) | Ragweed plant response rating (common ragweed; Postemergence, scale 0 to 100) | Plant response rating, Ragweed (common ragweed; [3]) | Ragweed plant response rating (common ragweed; [4]) | Plant response rating, Ragweed (common ragweed; [5]) | Chickweed plant response rating (chickweed; Postemergence, scale 0 to 100) | Plant response rating, Chickweed (chickweed; [3]) | Plant response rating, Chickweed (chickweed; [5]) | Plant response rating (0 = no effect, 100 = complete control), Morningglory (morningglory; 62 g ai/ha, preemergence) | Plant response rating, Morningglory (morningglory; [1]) | Morningglory plant response rating (morningglory; Postemergence, scale 0 to 100) | Plant response rating, Morningglory (morningglory; [3]) | Morningglory plant response rating (morningglory; [4]) | Plant response rating, Morningglory (morningglory; [5]) | Plant response rating, Foxtail, Giant (giant foxtail; [8]) | Foxtail, Giant plant response rating (giant foxtail; [9]) | Foxtail, Giant plant response rating (giant foxtail; [10]) | Plant response rating, Ragweed (common ragweed; [11]) | Plant response rating, Morningglory (morningglory; [11]) | further results
1 | C=CCNC(=O)c1cccc(NC(=O)c2cc(C(C)(C)C)nn2CC)c1 [Compound 46] | 10 | 40 | 80 | 80 | 90 | 70 | 100 | 80 | 70 | 0 | 0 | 80 | 60 | 90 | 60 | 100 | 90 | 100 |  |  | Plant response rating, Ragweed (common ragweed; [2]): 90; Plant response rating, Chickweed (chickweed; [6]): 70; Plant response rating, Morningglory (morningglory; [2]): 90; Plant response rating, Foxtail, Giant (giant foxtail; [7]): 80
2 | C#CCNC(=O)c1cccc(NC(=O)c2cc(C(C)(C)C)nn2CC)c1 [Compound 47] | 80 | 80 | 90 | 80 | 100 | 70 | 100 | 90 | 90 | 0 | 0 | 90 | 70 | 90 | 50 | 85 | 90 | 100 |  |  | Plant response rating, Ragweed (common ragweed; [2]): 100; Plant response rating, Chickweed (chickweed; [6]): 90; Plant response rating, Morningglory (morningglory; [2]): 90; Plant response rating, Foxtail, Giant (giant foxtail; [7]): 90
3 | CCNC(=O)c1cc(NC(=O)c2cc(C(C)(C)C)nn2CC)ccc1F [Compound 58] | 60 | 85 | 85 | 5 | 100 | 0 | 85 | 50 | 20 | 10 | 20 | 20 | 10 | 80 | 10 | 60 | 85 | 95 |  |  | Plant response rating, Ragweed (common ragweed; [2]): 100; Plant response rating, Chickweed (chickweed; [6]): 20; Plant response rating, Morningglory (morningglory; [2]): 50; Plant response rating, Foxtail, Giant (giant foxtail; [7]): 45
4 | CCCCOC(=O)c1cccc(NC(=O)c2cc(C(C)(C)C)nn2CC)c1 [Compound 86] |  |  | 70 | 70 |  | 10 | 100 | 100 | 100 |  |  | 85 | 85 |  | 10 | 20 | 0 | 0 | 65 | 75 | Plant response rating, Chickweed (chickweed; [11]): 100; Foxtail, Giant plant response rating (giant foxtail; [7]): 20
5 | CCOC(=O)c1cc(NC(=O)c2cc(C(C)(C)C)nn2CC)ccc1OC [Compound 96] | 50 | 90 | 85 | 80 | 100 | 50 | 100 | 100 | 100 | 0 | 50 | 50 | 30 | 100 | 0 | 80 | 75 | 95 | 50 | 5 | Plant response rating, Chickweed (chickweed; [11]): 100; Foxtail, Giant plant response rating (giant foxtail; [7]): 60
6 | C=Cn1nc(C(C)(C)C)cc1C(=O)Nc1cccc(C(C)=NO)c1 [Compound 114] | 10 | 10 |  | 90 |  | 60 |  | 100 | 100 |  | 60 |  |  |  | 10 | 55 | 30 |  | 80 | 30 | Plant response rating, Ragweed (common ragweed; [12]): 10; Plant response rating, Chickweed (chickweed; postemergence, 31 g ai/ha, scale 0 to 100): 80; Plant response rating, Morningglory (morningglory; [12]): 40; Foxtail, Giant plant response rating (giant foxtail; [7]): 50; Foxtail, Giant plant response rating (giant foxtail; [13]): 45
7 | CC(=NO)c1cccc(NC(=O)c2cc(C(C)(C)C)nn2CCF)c1 [Compound 115] | 70 | 80 | 90 | 70 | 100 | 70 | 100 | 100 | 100 |  | 30 | 100 |  | 80 | 50 | 80 | 50 |  | 70 | 80 | Plant response rating, Chickweed (chickweed; [11]): 100; Foxtail, Giant plant response rating (giant foxtail; [7]): 60; Foxtail, Giant plant response rating (giant foxtail; [13]): 80
8 | CCn1nc(C(C)(C)C)cc1C(=O)Nc1cccc(SC(F)(F)F)c1 [Compound 130] | 0 | 10 | 85 | 85 | 80 |  | 100 | 100 |  | 0 | 0 | 100 | 80 | 30 |  | 10 | 50 |  | 40 | 40 | Plant response rating, Chickweed (chickweed; [11]): 100; Foxtail, Giant plant response rating (giant foxtail; [7]): 10; Foxtail, Giant plant response rating (giant foxtail; [13]): 55
9 | CCNC(=O)c1ccc(F)c(NC(=O)c2c3c(nn2CC)C(C)(C)CC3)c1 [Compound 353] |  |  |  |  |  |  |  |  |  |  |  |  |  |  |  |  |  |  |  |  | Barley, Winter plant response rating (winter barley; Postemergence, 500 g ai/ha, scale 0 to 100): 25; Plant response rating, Barley, Winter (winter barley; [6]): 15; Plant response rating, Barley, Winter (winter barley; [3]): 20; Plant response rating, Barley, Winter (winter barley; postemergence, 62 g ai/ha, scale 0 to 100 (0 no effect, 100 complete control)): 5
